Experimental data as given in US12246026B2, “Ganaxolone for use in treatment of status epilepticus” (Marinus Pharmaceuticals, Inc., priority 2019, dated 2025).

How the values were obtained:
progesterone receptor = molecular target: T1, progesterone receptor (Homo sapiens, UniProt P06401); assay: Progesterone receptor activation; conditions: directly or indirectly via metabolic conversion
T1 sequence (P06401 1-933): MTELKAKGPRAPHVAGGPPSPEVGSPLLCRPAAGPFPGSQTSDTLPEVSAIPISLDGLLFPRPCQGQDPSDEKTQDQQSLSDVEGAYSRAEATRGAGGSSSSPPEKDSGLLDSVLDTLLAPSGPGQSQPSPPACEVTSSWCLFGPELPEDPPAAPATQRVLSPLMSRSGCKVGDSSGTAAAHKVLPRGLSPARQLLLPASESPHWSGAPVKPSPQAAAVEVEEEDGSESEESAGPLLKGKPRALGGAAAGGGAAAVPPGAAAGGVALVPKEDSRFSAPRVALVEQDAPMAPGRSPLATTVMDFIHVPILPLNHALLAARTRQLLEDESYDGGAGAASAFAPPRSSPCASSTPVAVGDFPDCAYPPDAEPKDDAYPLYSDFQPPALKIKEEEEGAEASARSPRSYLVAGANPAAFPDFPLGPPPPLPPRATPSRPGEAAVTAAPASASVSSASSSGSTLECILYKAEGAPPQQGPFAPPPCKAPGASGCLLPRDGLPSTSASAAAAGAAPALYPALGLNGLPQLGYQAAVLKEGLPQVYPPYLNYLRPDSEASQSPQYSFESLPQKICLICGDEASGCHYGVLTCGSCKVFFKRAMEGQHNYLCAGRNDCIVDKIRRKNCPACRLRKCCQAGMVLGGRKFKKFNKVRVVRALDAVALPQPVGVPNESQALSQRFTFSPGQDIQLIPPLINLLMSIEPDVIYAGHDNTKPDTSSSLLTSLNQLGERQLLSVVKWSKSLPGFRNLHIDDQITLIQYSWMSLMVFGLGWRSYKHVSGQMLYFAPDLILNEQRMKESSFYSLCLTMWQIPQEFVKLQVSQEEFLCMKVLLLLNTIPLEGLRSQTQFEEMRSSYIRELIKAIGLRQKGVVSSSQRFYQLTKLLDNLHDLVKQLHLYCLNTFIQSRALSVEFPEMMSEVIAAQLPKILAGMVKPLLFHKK
Description: Ganaxolone (3α-hydroxy-3β-methyl-5α-pregnan-20-one) is a 3β-methylated synthetic analogue of the endogenous neurosteroid allopregnanolone with similar biological activity (Carter et al., (1997), The Journal of Pharmacology and Experimental Therapeutics, 280:1284-1295), but it is designed to not activate nuclear (classical) progesterone receptors. Also, in contrast to allopregnanolone, ganaxolone is orally bioavailable.

[1] = Phase 2 Study 1042-SE-2001 open-label group, GNX plasma concentration and PK modeling; format: in vivo, human
Protocol: These infusion dosing parameters are expected to result in daily doses of ganaxolone of about ≤714 mg/day and Captisol of about ≤50 grams/day. Based on PK modeling, it is predicted that maximum concentrations of ganaxolone should remain within 1,000 ng/mL during infusion, but some variability is expected due to, for example, differences in subjects' weight.
As of 22 Mar. 2019, 5 subjects were enrolled into the Study 1042-SE-2001 open-label group under the original protocol that limits daily Captisol exposure at 35 g/day. […] The initial EEG pattern post-infusion initiation was described by study physicians as a “light” burst suppression that was maintained for several hours in all subjects. […] It was observed that when GNX exposure was lowered (20 mg/hr for 2 hours and ending with 10 mg/hr for the remaining 18 hours on Day 1) in order not to exceed this limit, seizure control could not be maintained and seizure activity (but not SE) re-occurred as evidenced by EEG changes. […] Seizure activity relapsed when plasma concentrations of GNX decreased <500 ng/mL in 4 out of 5 subjects.

[2] = Emergency IND No. 131,642, GNX plasma concentration; format: in vivo; conditions: human, intravenous, eIND 131,642, Day 1 regimen delivering 900 mg
Protocol: (§1) Under eIND No. 131,642, IV GNX was administered to a subject with SRSE who was unable to maintain status cessation with ketamine and barbiturates. The Day 1 dosage regimen delivered 900 mg of GNX, equating to a 900 to 1200 ng/mL plasma concentration of GNX. As the subject could not be maintained in burst suppression, the clinical team was able to utilize EEG changes to gauge the response (FIG. 11). […] However, due to the dosing plan agreed upon with the FDA with a daily Captisol limit of 63 g/day, the initial 120 mg/hr dose on Day 1 could not be maintained for longer than 1 hour and then had to be decreased to the 30 mg/hr dose. The first seizures re-occurred within 15 to 20 minutes of the change in GNX dose from 120 mg/hr to 30 mg/hr.

subject with SRSE = assay: Emergency IND No. 131,642, IV GNX in SRSE, EEG response; format: in vivo, human
Protocol: as §1

[3] = tested on: pediatric subject with SRSE; assay: Emergency IND No. 137,883, IV GNX in pediatric SRSE
[4] = PK modeling data from 5 subjects

## CC(=O)[C@H]1CC[C@H]2[C@@H]3CC[C@H]4C[C@](C)(O)CC[C@]4(C)[C@H]3CC[C@]12C [Ganaxolone, 3α-hydroxy-3β-methyl-5α-pregnan-20-one]
Progesterone receptor
  activation of the progesterone receptor: does not activate the progesterone receptor directly or indirectly
[1]; [4]
  GNX exposure associated with seizure relapse: < 500 ng/mL
  GNX exposure level associated with rapid and complete SE suppression: approximately 1000 ng/mL
[1]; Subject 004-101
  GNX plasma concentration at the time of seizure relapse: < 500 ng/mL
[1]; Subject 006-101
  GNX plasma concentration at the time of seizure relapse: < 500 ng/mL
[1]; Subject 006-102
  GNX plasma concentration at the time of seizure relapse: < 500 ng/mL
[2]
  concentration at 1 day: 900 to 1200 ng/mL
Subject with SRSE; eIND 131,642
  dose at which the effect of GNX started: 60 mg/h
Subject with SRSE; eIND 131,642, at 120 mg/hr
  EEG seizure response: complete seizure cessation
Subject with SRSE; eIND 131,642, change from 120 mg/hr to 30 mg/hr
  time to first seizure re-occurrence after dose change: 15 to 20 min
[3]; eIND 137,883
  duration of suppressed EEG background: approximately 2 hours
  finding on examination leading to stop of infusion: nonreactive pupils
[3]; eIND 137,883, concomitant pentobarbital 2.25 mg/kg/hr
  EEG at the time of GNX bolus infusion: continuous suppressed background
